Results: PubChem BioAssay AID256 (DTP/NCI, 2004)
Where “and” joins values, the source holds several entries; their conditions need not be identical. Identical values can stand only once. Inconclusive results and toxic doses are left out.

Tested on: CD2F1 mice, L1210 leukemia ip, survival T/C
Experiment: NCI In Vivo Anticancer Drug Screen. Data for tumor model L1210 Leukemia (intraperitoneal) in CD2F1 (CDF1) mice
Details: higher = longer survival
Outline: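 In this screen, transplantable tumors were grown in mice given either the compound or its vehicle. Results were expressed as the treated measurement relative to the control measurement.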

`COc1cc(NS(C)(=O)=O)ccc1Nc1c2ccccc2nc2ccccc12` was tested, and the T/C (endpoint: mean survival time, dose: 1.0 mg/kg/injection, schedule: Q01DX009 (ip), vehicle: saline) was 110 % of control, the T/C (endpoint: mean survival time, dose: 1.0 mg/kg/injection, schedule: Q01DX009 (sc), vehicle: saline) was 101 % of control and the T/C (endpoint: mean survival time, dose: 1.8 mg/kg/injection, schedule: Q01DX009 (ip), vehicle: other) was 185 % of control. The T/C (endpoint: mean survival time, dose: 2.0 mg/kg/injection, schedule: Q01DX009 (sc), vehicle: saline) was 104 % of control, the T/C (endpoint: mean survival time, dose: 2.0 mg/kg/injection, schedule: Q03HX008 (ip), vehicle: saline) was 150 % of control and the T/C (endpoint: mean survival time, dose: 2.0 mg/kg/injection, schedule: Q03HX024 (ip), vehicle: saline) was 151 % of control. For the same molecule, the T/C (endpoint: mean survival time, dose: 3.75 mg/kg/injection, schedule: Q01DX009 (ip), vehicle: other) was 173 % of control and 174 % of control, the T/C (endpoint: mean survival time, dose: 3.75 mg/kg/injection, schedule: Q04DX003 (ip), vehicle: other) was 98 % of control and the T/C (endpoint: mean survival time, dose: 4.0 mg/kg/injection, schedule: Q01DX009 (ip), vehicle: saline) was 155 % of control and 218 % of control and 161 % of control. For the same molecule, the T/C (endpoint: mean survival time, dose: 4.0 mg/kg/injection, schedule: Q01DX009 (oral), vehicle: saline) was 102 % of control, the T/C (endpoint: mean survival time, dose: 4.0 mg/kg/injection, schedule: Q01DX009 (sc), vehicle: saline) was 113 % of control and the T/C (endpoint: mean survival time, dose: 4.0 mg/kg/injection, schedule: Q03HX008 (ip), vehicle: saline) was 164 % of control. The T/C (endpoint: mean survival time, dose: 4.0 mg/kg/injection, schedule: Q03HX016 (ip), vehicle: saline) was 346 % of control, the T/C (endpoint: mean survival time, dose: 4.0 mg/kg/injection, schedule: Q03HX024 (ip), vehicle: saline) was 122 % of control and the T/C (endpoint: mean survival time, dose: 7.5 mg/kg/injection, schedule: Q01DX009 (ip), vehicle: other) was 91 % of control and 93 % of control. The T/C (endpoint: mean survival time, dose: 7.5 mg/kg/injection, schedule: Q04DX003 (ip), vehicle: other) was 150 % of control, the T/C (endpoint: mean survival time, dose: 8.0 mg/kg/injection, schedule: Q01DX009 (oral), vehicle: saline) was 113 % of control and the T/C (endpoint: mean survival time, dose: 8.0 mg/kg/injection, schedule: Q03HX008 (ip), vehicle: saline) was 86 % of control. The T/C (endpoint: mean survival time, dose: 8.0 mg/kg/injection, schedule: Q03HX016 (ip), vehicle: saline) was 93 % of control, the T/C (endpoint: mean survival time, dose: 15.0 mg/kg/injection, schedule: Q01DX001 (ip), vehicle: other) was 154 % of control and the T/C (endpoint: mean survival time, dose: 15.0 mg/kg/injection, schedule: Q04DX003 (ip), vehicle: other) was 124 % of control and 221 % of control. For the same molecule, the T/C (endpoint: mean survival time, dose: 16.0 mg/kg/injection, schedule: Q01DX001 (sc), vehicle: saline) was 112 % of control, the T/C (endpoint: mean survival time, dose: 16.0 mg/kg/injection, schedule: Q01DX009 (oral), vehicle: saline) was 102 % of control and the T/C (endpoint: mean survival time, dose: 16.0 mg/kg/injection, schedule: Q01DX009 (sc), vehicle: saline) was 101 % of control. The T/C (endpoint: mean survival time, dose: 16.0 mg/kg/injection, schedule: Q04DX003 (ip), vehicle: saline) was 150 % of control, the T/C (endpoint: mean survival time, dose: 32.0 mg/kg/injection, schedule: Q01DX001 (sc), vehicle: saline) was 117 % of control and the T/C (endpoint: mean survival time, dose: 32.0 mg/kg/injection, schedule: Q01DX009 (oral), vehicle: saline) was 93 % of control. The T/C (endpoint: mean survival time, dose: 32.0 mg/kg/injection, schedule: Q04DX003 (ip), vehicle: saline) was 153 % of control, the T/C (endpoint: mean survival time, dose: 64.0 mg/kg/injection, schedule: Q01DX001 (oral), vehicle: saline) was 109 % of control and the T/C (endpoint: mean survival time, dose: 64.0 mg/kg/injection, schedule: Q01DX001 (sc), vehicle: saline) was 119 % of control. The T/C (endpoint: mean survival time, dose: 64.0 mg/kg/injection, schedule: Q08DX002 (ip), vehicle: saline) was 154 % of control, the T/C (endpoint: mean survival time, dose: 128.0 mg/kg/injection, schedule: Q01DX001 (ip), vehicle: saline) was 92 % of control and the T/C (endpoint: mean survival time, dose: 128.0 mg/kg/injection, schedule: Q01DX001 (oral), vehicle: saline) was 114 % of control. The T/C (endpoint: mean survival time, dose: 128.0 mg/kg/injection, schedule: Q01DX001 (sc), vehicle: saline) was 117 % of control, the T/C (endpoint: mean survival time, dose: 256.0 mg/kg/injection, schedule: Q01DX001 (oral), vehicle: saline) was 104 % of control and the T/C (endpoint: mean survival time, dose: 256.0 mg/kg/injection, schedule: Q01DX001 (sc), vehicle: saline) was 118 % of control. For the same molecule, the T/C (endpoint: mean survival time, dose: 512.0 mg/kg/injection, schedule: Q01DX001 (oral), vehicle: saline) was 112 % of control, the T/C (endpoint: median survival time, dose: 0.25 mg/kg/injection, schedule: Q01DX009 (sc), vehicle: other) was 112 % of control and the T/C (endpoint: median survival time, dose: 0.25 mg/kg/injection, schedule: Q03HX016 (ip), vehicle: other) was 118 % of control. For the same molecule, the T/C (endpoint: median survival time, dose: 0.5 mg/kg/injection, schedule: Q01DX009 (sc), vehicle: other) was 112 % of control, the T/C (endpoint: median survival time, dose: 1.0 mg/kg/injection, schedule: Q01DX009 (ip), vehicle: saline with Tween-80) was 165 % of control and the T/C (endpoint: median survival time, dose: 1.0 mg/kg/injection, schedule: Q01DX009 (oral), vehicle: other) was 100 % of control. For the same molecule, the T/C (endpoint: median survival time, dose: 1.0 mg/kg/injection, schedule: Q01DX009 (sc), vehicle: other) was 112 % of control, the T/C (endpoint: median survival time, dose: 1.0 mg/kg/injection, schedule: Q03HX008 (ip), vehicle: other) was 162 % of control and the T/C (endpoint: median survival time, dose: 1.0 mg/kg/injection, schedule: Q03HX016 (ip), vehicle: other) was 150 % of control. For the same molecule, the T/C (endpoint: median survival time, dose: 1.0 mg/kg/injection, schedule: Q03HX024 (ip), vehicle: other) was 175 % of control, the T/C (endpoint: median survival time, dose: 2.0 mg/kg/injection, schedule: Q01DX001 (ip), vehicle: other) was 118 % of control and the T/C (endpoint: median survival time, dose: 2.0 mg/kg/injection, schedule: Q01DX001 (sc), vehicle: other) was 112 % of control. For the same molecule, the T/C (endpoint: median survival time, dose: 2.0 mg/kg/injection, schedule: Q01DX009 (ip), vehicle: other) was 150 % of control and 161 % of control, the T/C (endpoint: median survival time, dose: 2.0 mg/kg/injection, schedule: Q01DX009 (oral), vehicle: other) was 100 % of control and the T/C (endpoint: median survival time, dose: 2.0 mg/kg/injection, schedule: Q03HX008 (ip), vehicle: other) was 181 % of control. The T/C (endpoint: median survival time, dose: 2.0 mg/kg/injection, schedule: Q03HX016 (ip), vehicle: other) was 181 % of control, the T/C (endpoint: median survival time, dose: 2.0 mg/kg/injection, schedule: Q04DX003 (ip), vehicle: other) was 120 % of control and the T/C (endpoint: median survival time, dose: 2.59 mg/kg/injection, schedule: Q04DX003 (ip), vehicle: other) was 124 % of control. The T/C (endpoint: median survival time, dose: 4.0 mg/kg/injection, schedule: Q01DX001 (sc), vehicle: other) was 112 % of control, the T/C (endpoint: median survival time, dose: 4.0 mg/kg/injection, schedule: Q01DX009 (ip), vehicle: other) was 193 % of control and 200 % of control and the T/C (endpoint: median survival time, dose: 4.0 mg/kg/injection, schedule: Q01DX009 (ip), vehicle: saline with Tween-80) was 151 % of control (2×) and 163 % of control. For the same molecule, the T/C (endpoint: median survival time, dose: 4.0 mg/kg/injection, schedule: Q01DX009 (oral), vehicle: other) was 112 % of control, the T/C (endpoint: median survival time, dose: 4.0 mg/kg/injection, schedule: Q01DX009 (sc), vehicle: other) was 150 % of control and the T/C (endpoint: median survival time, dose: 8.0 mg/kg/injection, schedule: Q01DX001 (oral), vehicle: other) was 112 % of control. The T/C (endpoint: median survival time, dose: 8.0 mg/kg/injection, schedule: Q01DX001 (sc), vehicle: other) was 112 % of control, the T/C (endpoint: median survival time, dose: 8.0 mg/kg/injection, schedule: Q01DX009 (ip), vehicle: other) was 87 % of control and 88 % of control and the T/C (endpoint: median survival time, dose: 8.0 mg/kg/injection, schedule: Q01DX009 (oral), vehicle: other) was 150 % of control. For the same molecule, the T/C (endpoint: median survival time, dose: 8.0 mg/kg/injection, schedule: Q01DX009 (sc), vehicle: other) was 112 % of control, the T/C (endpoint: median survival time, dose: 8.0 mg/kg/injection, schedule: Q04DX003 (ip), vehicle: other) was 181 % of control and the T/C (endpoint: median survival time, dose: 8.0 mg/kg/injection, schedule: Q08DX002 (ip), vehicle: other) was 156 % of control. The T/C (endpoint: median survival time, dose: 12.0 mg/kg/injection, schedule: Q04DX003 (ip), vehicle: other) was 186 % of control, the T/C (endpoint: median survival time, dose: 16.0 mg/kg/injection, schedule: Q01DX009 (ip), vehicle: other) was 90 % of control and the T/C (endpoint: median survival time, dose: 16.0 mg/kg/injection, schedule: Q01DX009 (oral), vehicle: other) was 87 % of control. The T/C (endpoint: median survival time, dose: 16.0 mg/kg/injection, schedule: Q01DX009 (sc), vehicle: other) was 87 % of control, the T/C (endpoint: median survival time, dose: 16.0 mg/kg/injection, schedule: Q04DX003 (ip), vehicle: other) was 150 % of control and 175 % of control and the T/C (endpoint: median survival time, dose: 16.0 mg/kg/injection, schedule: Q08DX002 (ip), vehicle: other) was 175 % of control. The T/C (endpoint: median survival time, dose: 20.0 mg/kg/injection, schedule: Q04DX003 (ip), vehicle: other) was 98 % of control, the T/C (endpoint: median survival time, dose: 32.0 mg/kg/injection, schedule: Q04DX003 (ip), vehicle: other) was 106 % of control and the T/C (endpoint: median survival time, dose: 64.0 mg/kg/injection, schedule: Q01DX001 (oral), vehicle: other) was 150 % of control. For the same molecule, the T/C (endpoint: median survival time, dose: 64.0 mg/kg/injection, schedule: Q01DX001 (sc), vehicle: other) was 156 % of control and the T/C (endpoint: median survival time, dose: 128.0 mg/kg/injection, schedule: Q01DX001 (sc), vehicle: other) was 118 % of control.
